# From patent publication US20070079447A1, “Insect repellent textile” (Beiersdorf AG, priority 2003, published 2007)
# Legend:
# insects = settings: cited from earlier work; for Effectiveness (literature and manufacturer details): pests repelled, table of further repellents
# [1] = Polarity: interfacial tension toward water; format: physicochemical;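 also: polarity expressed as oil–water interfacial tension in mN/m, lower values meaning a more polar oil, with medium-polar lipids falling between 20 and 30 mN/m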
# From the text: For the purposes of the present invention, lipids are regarded as being polar if their interfacial tension toward water is less than 20 mN/m, and as nonpolar if their interfacial tension toward water is more than 30 mN/m. Lipids with an interfacial tension toward water between 20 and 30 mN/m are generally referred to as medium-polar.
compound,measurement,setting,value
"O=CC12CC=CCC1C1CC=CCC1O2 (stereo not drawn) [2,3;4,5-bis(2-Butylene)tetrahydro-2-furaldehyde]",Effectiveness (literature and manufacturer details),insects,cockroaches and biting insects^1
"CCCC(O)C(CC)CO (stereo not drawn) [2-Ethylhexane-1,3-diol]",Effectiveness (literature and manufacturer details),insects,"mosquitoes, horse-flies, flies, fleas, mites^1"
"CCCCCCCCCCCCCCCC(=O)OCCCCCCCC [Cegesoft C24, Octyl Palmitate]",Polarity,[1]; medium-polar lipids,23.1 mN/m
"CCCCOC(=O)CCCCC(=O)OCCCC [Cetiol B, Dibutyl Adipate]",Polarity,[1]; polar lipids,14.3 mN/m
"CCCCCCCC(=O)OC(=O)CCCCCCC [Cetiol OE, Dicaprylyl Ether]",Polarity,[1]; nonpolar lipids,30.9 mN/m
"CCN(CC)C(=O)c1cccc(C)c1 [DEET, N,N-diethyl-3-methylbenzamide]",effective against (pests repelled),insects,"mosquitoes, horse-flies, sand-flies, ticks, biting flies, mites, fleas and bugs"
"CC(C)CCCCCCCOC(=O)C(C)(C)C [DUB VCI 10, Isodecyl Neopentanoate]",Polarity,[1]; medium-polar lipids,29.9 mN/m
"CCCCC(CC)COC(=O)CCCCCC(C)C (stereo not drawn) [Dermol 89, 2-Ethylhexyl Isononanoate]",Polarity,[1]; nonpolar lipids,31.0 mN/m
"CCCCC(CC)C(=O)OCCC(C)CC(C)(C)C (stereo not drawn) [Dermol 98, 2-Ethylhexanoic acid 3,5,5-Trimethyl ester]",Polarity,[1]; medium-polar lipids,26.2 mN/m
"CC(CCOC(=O)CC(C)CC(C)(C)C)CC(C)(C)C (stereo not drawn) [Dermol 99, Trimethylhexyl Isononanoate]",Polarity,[1]; nonpolar lipids,31.1 mN/m
"CCCCCCCC(=O)OCCCCCCCC(C)C [Dermol 108, Isodecyl Octanoate]",Polarity,[1]; medium-polar lipids,29.6 mN/m
"CC(C)CCCCCCCOC(=O)CC(C)CC(C)(C)C (stereo not drawn) [Dermol 109, Isodecyl 3,5,5 Trimethyl Hexanoate]",Polarity,[1]; medium-polar lipids,29.1 mN/m
"CCCCCCCCCC(=O)OCCCC(C)C [Dermol IHD, Isohexyl decanoate]",Polarity,[1]; medium-polar lipids,29.7 mN/m
CCCCCCOCCCCCC [Dihexyl Ether],Polarity,[1]; medium-polar lipids,29.2 mN/m
"CCCCCCOC(=O)OCCCCCC [Dihexyl carbonate, Dihexyl Carbonate]",Polarity,[1]; nonpolar lipids,30.9 mN/m
COC(=O)C1C2C=CC(C2)C1C(=O)OC (stereo not drawn) [Dimethyl carbate],Effectiveness (literature and manufacturer details),insects,"mosquitoes, in particular of the Aedes species^1"
COC(=O)c1ccccc1C(=O)OC [Dimethyl phthalate],effective against (pests repelled),insects,mosquitoes (in particular Aedes and Anopheles species)
"O1[SiH2]O[SiH2]O[SiH2]O[SiH2]O[SiH2]1 (stereo not drawn) [Dow Corning Fluid 245, Cyclopentasiloxane]",Polarity,[1]; nonpolar lipids,32.3 mN/m
same,Polarity,[1]; silicone oils,32.3 mN/m
"CC(C)CCCCCCCCCCCCCCC(=O)O.CC(O)CO [Emerest 2384, Propylene Glycol Monoisostearate]",Polarity,[1]; polar lipids,6.2 mN/m
"CCCCCCCCCCC(CO)CCCCCCCC (stereo not drawn) [Eutanol G, Octyldodecanol]",Polarity,[1]; medium-polar lipids,24.8 mN/m
"CCCCCCC(CCCC)C(=O)O (stereo not drawn) [Isocarb 12, Butyl Octanoic acid]",Polarity,[1]; medium-polar lipids,22.1 mN/m
CCCCCCCCCCCCCCCCCC(C)C [Isoeicosane],Polarity,[1]; nonpolar lipids,41.9 mN/m
"CCCCCCCCCCCCCCCCCC(=O)OC(C)C [Isopropyl stearate, Isopropyl Stearate]",Polarity,[1]; medium-polar lipids,21.9 mN/m
"CCCCCCCCCCCCCC(=O)OCC(CCCCCCCC)CCCCCCCCCC (stereo not drawn) [M.O.D., Octyldodecyl Myristate]",Polarity,[1]; medium-polar lipids,22.1 mN/m
"CCCCCCCC(=O)N(CC)CC [N,N-Diethyl caprylamide]",Effectiveness (literature and manufacturer details),insects,"cockroaches, mosquitoes, house files, horse-flies, ants, arachnids"
CCCCC(CC)CN1C(=O)C2C3C=CC(C3)C2C1=O (stereo not drawn) [N-Octylbicycloheptenedicarboximide],Effectiveness (literature and manufacturer details),insects,synergist^2
CCCCOCCOCCOCc1cc2c(cc1CCC)OCO2 [Piperonyl butoxide],Effectiveness (literature and manufacturer details),insects,synergist^2
"CCCCCCCCOC(=O)CCCCCCCCCCCCCCC(C)C [Prisorine 2036, Octyl Isostearate]",Polarity,[1]; nonpolar lipids,31.6 mN/m
"CCCCN(CCC(=O)OCC)C(C)=O [Repellent 3535, ethyl 3-(N-n-butyl-N-acetylamino)propionate]",effective against (pests repelled),insects,"mosquitoes (Aedes aegypti, Anopheles albimanus), tsetse flies (Glossinae) and horse-flies (Tabanidae)"
"CCCCCCCC/C=C\CCCCCCCC(=O)OCCOCCOCC [Softcutol O, Ethoxydiglycol Oleate]",Polarity,[1]; nonpolar lipids,40.5 mN/m
"CCCCCCCCCCCCCC(C)C [Solvent ICH, Isohexadecane]",Polarity,[1]; nonpolar lipids,43.8 mN/m
"CCCCCCCCCCCCCCCCCCOC(=O)CCCCCC [Tegosoft SH, Stearyl Heptanoate]",Polarity,[1]; polar lipids,17.8 mN/m
"CCCCCCCC(=O)OCC(COC(=O)CCCCCCC)OC(=O)CCCCCCC [Trivent OCG, Tricaprylin]",Polarity,[1]; medium-polar lipids,20.2 mN/m
Dioctylcyclohexane [Cetiol S],Polarity,[1]; nonpolar lipids,39.0 mN/m
Isocetyl Palmitate [Tegosoft HP],Polarity,[1]; nonpolar lipids,36.2 mN/m
"Isotridecyl 3,5,5 Trimethylhexanonanoate [Dermol 139]",Polarity,[1]; medium-polar lipids,24.5 mN/m
PEG 2 Diethylene hexanoate [Dermol 488],Polarity,[1]; polar lipids,10.1 mN/m
Triisostearin [Prisorine 2041 GTIS],Polarity,[1]; polar lipids,2.4 mN/m
